Assay results: US11214574B2, “Selective inhibitors of protein arginine methyltransferase 5 (PRMT5)” (Prelude Therapeutics, Incorporated, priority 2018, dated 2022)

Key:
[1] = tested on: sDMA marks (SmD3me2s) in Granta-519 cells; assay: Western blotting for symmetric di-methyl arginine (sDMA) marks in Granta-519 cells; type: cell-based; conditions: Homo sapiens, 72 h; Granta-519 cell line (values in square brackets), 3 days treatment
Description: Cell Treatment and Western Blotting for Detecting Symmetric Di-Methyl Arginine (sDMA) Marks
Compound titration and cell culture: Compounds were dissolved in DMSO to make 10 mM stock and 3-fold series dilutions were further conducted to make working stocks top at 1 mM. Granta-519 cells were maintained in PRMI 1640 (Corning Cellgro, Catalog #: 10-040-CV) supplemented with 10% v/v FBS (GE Healthcare, Catalog #: SH30910.03) and U-87 MG cells were maintained in DMEM (Corning Cellgro, Catalog #: 10-013-CV) with 10% FBS and 2 mM Glutamin (Corning Cellgro, Catalog #25005CV).
To determine enzyme inhibition IC50 values in Granta-519 and U-87 MG cells using Western Blot analysis. One day before experiment, Granta-519 cells were passaged to a density of 0.5×10^6 cells/ml. U-87 MG cells were trypsinized and 4×10^5 cells were seeded into 6-well plates and allow to grow overnight. […]
Cells were harvested 3 days later, resuspended in 15 uL PBS, lysed in 4% SDS, and homogenized by passing through homogenizer column (Omega Biotek, Catalog #: HCR003). Total protein concentrations were determined by BCA assay (ThermoFisher Scientific, Catalog #: 23225). […] SmD3me2s bands were quantified by ImageJ. […] IC50 values were calculated using Graphpad Prism ([Inhibitor] vs. normalized response—Variable slope).

PRMT5/MEP50 complex = PRMT5/MEP50 complex (Homo sapiens (Human), UniProt O14744); assay: PRMT5 biochemical assay (SPA, 3H-SAM); conditions: PRMT5/MEP50 2.5 nM, 300 nM AcH4-23 substrate, 1 μM 3H-SAM
Description: Biochemical Assay Protocol
Compounds were solubilized and 3-fold diluted in 100% DMSO. […] Standard reactions were performed in a total volume of 30 μl in assay buffer, with 300 nM histone H4 based AcH4-23 (Anaspec: AS-65002) as substrate. To this was added the PRMT5/MEP50 complex diluted to provide a final assay concentration of 2.5 nM and the compounds were allowed to preincubate for 20 minutes at 37° C. The reaction was initiated by adding S-[3H-methyl]-adenosyl-L-methionine (PerkinElmer: NET155001MC) to final concentration of 1 μM. Following a 30 minutes incubation at 37° C., the reaction was stopped by adding 25 μL of 8M Guanidine HCl. Prepare streptavidin YSI SPA beads (Perkinelmer: RPNQ0012) at 0.3 mg/mL in assay buffer. To each reaction, add 150 μL of SPA beads suspension, and incubated while shaking at room temperature for 30 minutes. The plate was centrifuged at 100×g for 30 second before reading in a scintillation counter. IC50 values were determined by fitting the data to the standard 4 parameters with Hill Slope using GraphPad Prism software.

[2] = tested on: γ-globin expression in K562 cells; assay: γ-globin induction by quantitative PCR in K562 cells; type: cell-based; conditions: 0.1 μM, 6 days, N=1
Description: Compounds were dissolved in DMSO to make 10 mM stock solutions, and further diluted to make 1 mM and 0.1 mM stocks.
K562 cells were purchased from ATCC and maintained in Iscove's DMEM (Corning Cellgro, Catalog #15-016-CVR) supplemented with 10% v/v FBS (GE Healthcare, Catalog #: SH30910.03) in a CO2 incubator (5% CO2) at 37° C. Cells were plated at a density of 5×10^5 cells/ml and treated with compound at final concentrations of 0.1 and 1 μM. Media and compound were renewed after 3 days in culture and cells were collected for RNA isolation after 6 days of treatment.
Assessment of γ-Globin Induction by Quantitative PCR
RNA was isolated using Quick-RNA Microprep kit (Zymo Research, Catalog #Z1050), cDNA was synthesized using qScript cDNA SuperMix (Quantabio, Catalog #95048). Quantitative PCR for γ-globin was performed using PerfeCTa SYBR Green FastMix (Quantabio, Catalog #95071) on Bio-Rad CFX Connect Real-Time PCR Detection System. Gene expression analysis was performed using CFX Manager software.
Assessment of γ-Globin Induction by Quantitative PCR in K562 Cells
Compounds were dissolved in DMSO to make 10 mM stock solutions, and further diluted to make 1 mM and 0.1 mM stocks. K562 cells were purchased from ATCC and maintained in Iscove's DMEM (Corning Cellgro, Catalog #15-016-CVR) supplemented with 10% v/v FBS (GE Healthcare, Catalog #: SH30910.03) in a CO2 incubator (5% CO2) at 37° C. […]

Sequence of PRMT5/MEP50 complex (O14744 whole entry): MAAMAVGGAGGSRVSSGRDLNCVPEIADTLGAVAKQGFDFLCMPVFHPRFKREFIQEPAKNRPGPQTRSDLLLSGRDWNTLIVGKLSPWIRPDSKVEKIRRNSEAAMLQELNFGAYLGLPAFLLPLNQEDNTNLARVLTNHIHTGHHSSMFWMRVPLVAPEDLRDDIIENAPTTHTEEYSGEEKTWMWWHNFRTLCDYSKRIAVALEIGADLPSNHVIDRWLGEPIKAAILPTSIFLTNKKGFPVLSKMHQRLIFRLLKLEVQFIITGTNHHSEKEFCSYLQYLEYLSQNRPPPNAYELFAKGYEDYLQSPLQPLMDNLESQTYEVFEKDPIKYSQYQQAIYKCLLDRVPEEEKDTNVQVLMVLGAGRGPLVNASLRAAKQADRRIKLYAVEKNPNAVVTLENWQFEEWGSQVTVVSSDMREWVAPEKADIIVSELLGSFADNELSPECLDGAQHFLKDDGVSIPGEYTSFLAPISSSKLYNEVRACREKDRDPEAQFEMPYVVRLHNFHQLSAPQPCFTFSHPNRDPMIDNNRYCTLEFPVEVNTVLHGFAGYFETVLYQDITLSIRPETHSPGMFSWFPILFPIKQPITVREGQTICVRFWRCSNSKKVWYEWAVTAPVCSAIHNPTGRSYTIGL
Sequence of PRMT5/MEP50 complex (Q9BQA1 whole entry partner): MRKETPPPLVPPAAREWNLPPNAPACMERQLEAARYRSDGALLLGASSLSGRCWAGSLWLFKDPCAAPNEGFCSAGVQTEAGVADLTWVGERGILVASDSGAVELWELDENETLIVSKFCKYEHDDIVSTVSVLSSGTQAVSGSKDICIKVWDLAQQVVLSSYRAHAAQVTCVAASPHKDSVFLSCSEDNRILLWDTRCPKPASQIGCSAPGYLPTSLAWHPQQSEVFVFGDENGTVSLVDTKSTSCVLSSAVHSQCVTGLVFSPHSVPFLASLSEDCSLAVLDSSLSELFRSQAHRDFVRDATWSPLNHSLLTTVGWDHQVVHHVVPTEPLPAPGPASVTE

## Nc1ncnc2c1ccn2[C@@H]1C[C@H]([C@H]2OCc3cc(Cl)ccc32)[C@@H](O)[C@H]1O [Example 2A, (1R,2S,3R,5S)-3-(4-amino-7H-pyrrolo[2,3-d]pyrimidin-7-yl)-5-((R)-5-chloro-1,3-dihydroisobenzofuran-1-yl)cyclopentane-1,2-diol]
[1]
  IC50: 27 nM

## Nc1ncnc2c1ccn2[C@@H]1O[C@H]([C@@H]2OCOCc3cc(Cl)ccc32)[C@@H](O)[C@H]1O [Example 81, (2R,3R,4S,5S)-2-(4-amino-7H-pyrrolo[2,3-d]pyrimidin-7-yl)-5-((R)-7-chloro-1,5-dihydrobenzo[e][1,3]dioxepin-1-yl)tetrahydrofuran-3,4-diol]
PRMT5/MEP50 complex
  IC50: 41.5 nM

## Cc1ncnc2c1ccn2[C@@H]1O[C@H]([C@@H]2OCCCc3cc(Cl)ccc32)[C@@H](O)[C@H]1O [Example 101, (2S,3S,4R,5R)-2-((R)-7-chloro-1,3,4,5-tetrahydrobenzo[c]oxepin-1-yl)-5-(4-methyl-7H-pyrrolo[2,3-d]pyrimidin-7-yl)tetrahydrofuran-3,4-diol]
PRMT5/MEP50 complex
  IC50: 1580 nM

## Nc1ncnc2c1ccn2[C@@H]1O[C@H]([C@@H]2OCc3ccc(Cl)cc32)[C@@H](O)[C@H]1O [Example 5, (2R,3R,4S,5S)-2-(4-amino-7H-pyrrolo[2,3-d]pyrimidin-7-yl)-5-((R)-6-chloro-1,3-dihydroisobenzofuran-1-yl)tetrahydrofuran-3,4-diol]
[2]
  increase in expression of γ-globin: 3 fold
